From patent US20240392251A1, “CULTURE MEDIUM AND CULTURE METHOD FOR LUNG CANCER EPITHELIAL CELLS, AND APPLICATION THEREOF” (PRECEDO PHARMACEUTICALS CO., LTD, priority 2021, published 2024) come the findings set out here.

Common to all, as to assay type: cell-based, human
The subject of experiment [1] is lung cancer cells (No. B18). The experiment is described as follows: Effects of different factors added to basic medium BM on proliferation of primary lung cancer cells. As to conditions: factor added to BM at the concentrations of Table 3; 12 days of culture; FIGS. 1A-1D. Here is the method: Extracellular matrix gel (Matrigel®) (manufactured by Corning) was diluted with serum-free DMEM/F12 medium at a ratio of 1:100 to prepare an extracellular matrix diluent. The extracellular matrix diluent was added to a 48-well culture plate with 500 μl/well to completely cover the bottom of the wells of the culture plate. The culture plate was let stand for 1 hour in a 37° C. incubator. After 1 hour, the extracellular matrix diluent was removed to provide a Matrigel-coated plate.
Preparation of basic medium (abbreviated as BM): BM was prepared by adding 0.2 vol. % of Primocin (purchased from Invivogen, with a concentration of 50 mg/ml) to the commercial DMEM/F-12 medium to provide a final concentration of 100 μg/ml.
Next, different kinds and concentrations of additive factors (Table 3) were added to the basic medium (BM), so as to prepare culture mediums for lung cancer epithelial cells containing different additive components.
The culture mediums with different components were added at a volume of 500 μl/well to 48-well plates which were coated with extracellular matrix gel (Matrigel). Lung cancer cells (No. B18) isolated from lung cancer tissues according to the same method as described in Example 1 were inoculated at a cell density of 2×10^4 cells/cm^2 in the above-mentioned 48-well culture plates which were coated with Matrigel. After surface disinfection, the plates were placed in a 37° C., 5% CO2 incubator (purchased from Thermo Fisher), and the same number of freshly isolated lung cancer tumor cells (No. B18) were cultured under different medium formulations. The culture mediums were replaced every 4 days after the start of culture. After 12 days of culture, cell counts were performed. The basic medium (BM) without addition of any additive factor was used as a control. The ordinate in the figures represents the ratio of the number of cells obtained after culture in different mediums to the number of cells obtained after culture in basic medium BM.

Experiment [2] deals with lung cancer epithelial cells (Sample No. B26). Nature of the experiment: Effects of different concentrations of the additive factors on proliferation of primary lung cancer cells. As to conditions: added to No. 8 medium lacking the factor; cell number ratio to Blank Control; FIGS. 3A-3H. Here is the method: Extracellular matrix gel (Matrigel®) was diluted with serum-free DMEM/F12 medium at a ratio of 1:100 to prepare an extracellular matrix diluent. The extracellular matrix diluent was added to a 48-well culture plate with 200 μl/well to completely cover the bottom of the wells of the culture plate. The culture plate was let stand for 1 hour in a 37° C. incubator. After 1 hour, the extracellular matrix diluent was removed to provide a Matrigel-coated plate.
No. 8 culture medium for primary lung cancer epithelial cells was prepared.
Lung cancer epithelial cells derived from cancer tissues were isolated from the cancer tissue of a lung cancer patient (Sample No. B26) using the same method as in Example 1. Next, lung cancer epithelial cells derived from cancer tissues were counted with a flow imaging counter (JIMBIO FIL, Jiangsu Jimbio Technology Co., Ltd.) to get the total number of cells. Then, the cells were inoculated at a density of 4×10^4 cells/cm^2 in a 48-well plate which was coated with Matrigel®. […] of the prepared No. 8 culture medium for primary lung cancer epithelial cells was added to the 48-well plate, which was then placed in a 37° C., 5% CO2 incubator (purchased from Thermo Fisher) for culture. When the cells in the culture plate grew to cover about 80% of the bottom area, the supernatant of medium in the 48-well plate was discarded and 500 μl of 0.05% trypsin (purchased from Gibco) was added for cell digestion, which was then incubated at 37° C. for 10 minutes, until the cells were completely digested as observed under a microscope (EVOS M500, Invitrogen); then the digestion was terminated by using 1 ml of DMEM/F12 culture solution containing 5% (v/v) fetal bovine serum (purchased from ExCell Bio), 100 U/ml penicillin (purchased from Corning), and […] streptomycin (purchased from Corning); the resultant was collected into a 15 ml centrifuge tube and centrifuged at 1500 rpm for 4 minutes, and then the supernatant was discarded. The centrifuged cell pellet was resuspended in the basic medium BM and the cells were counted with a flow imaging counter (JIMBIO FIL, Jiangsu Jimbio Technology Co., Ltd.) to get the total number of cells. The obtained cells were used in the following cultivation experiments.
Next, the following 8 formulations of culture medium were prepared for experiments: • Formulation 1: No. 8 culture medium composition without B27 additive; • Formulation 2: No. 8 culture medium composition without fibroblast growth factor; • Formulation 3: No. 8 culture medium composition without transferrin; • Formulation 4: No. 8 culture medium composition without epidermal growth factor; • Formulation 5: No. 8 culture medium composition without Y27632; • Formulation 6: No. 8 culture medium composition without Compound 1; • Formulation 7: No. 8 culture medium composition without A83-01; • Formulation 8: No. 8 culture medium composition without gastrin.
The digested cell suspension was diluted with the above Formulations 1-8 respectively, and then inoculated into a 48-well plate at a volume of 250 μl with 10,000 cells per well.
When using the medium of Formulation 1, to a 48-well plate inoculated with primary cells was added the prepared B27 additive, with 250 μl per well, the final concentrations of B27 additive were 1:800, 1:400, 1:200, 1:100, 1:50, 1:25, respectively; a well of Blank Control (BC) was set using the medium of Formulation 1.
When using the medium of Formulation 2, to a 48-well plate inoculated with primary cells was added the prepared fibroblast growth factor, with 250 μl per well, the final concentrations of fibroblast growth factor were 80 ng/ml, 40 ng/ml, 20 ng/ml, 10 ng/ml, 5 ng/ml, 2.5 ng/ml, respectively; a well of Blank Control (BC) was set using the medium of Formulation 2. […]

Experiment [3] has as its system Hippo pathway related proteins YAP and TAZ in the nucleus. Nature of the experiment: Immunoblotting of Hippo pathway related proteins YAP and TAZ in the nucleus. As to conditions: B16 cells, FLM with Compound 1 versus FLM without Compound 1, 12 days; FIG. 10. Here is the method:
Freshly isolated primary lung cancer epithelial cell sample (No. B16) was obtained according to the steps described in Example 1. Then, the primary epithelial cells were inoculated onto a 6-well plate coated with Matrigel™. 3 mL of the culture medium FLM and 3 mL of the culture medium FLM without Compound 1 were respectively added to the wells inoculated with the aforementioned epithelial cells. The plate was placed in a 37° C., 5% CO2 incubator (purchased from Thermo Fisher) for culture. The culture mediums were changed every 4 days during the culture process. After 12 days of cultivation, cells of each group were collected and the […] of Compound 1 on Hippo pathway related proteins YAP and TAZ in the nucleus was detected using conventional immunoblotting method. Yes associated protein (YAP) and its homologous transcriptional co-activator PDZ-binding motif (TAZ) are key effectors in the Hippo pathway that control cell growth and organ size, and their dysregulation may lead to tumor development or hypertrophy. After activation, YAP/TAZ translocate to the nucleus and bind to TEAD transcription factors, promoting cell proliferation or regulated transcription process.

Ends that are not written are not given here.

For fibroblast growth factor, the “effect on cell proliferation (ratio of number of cells to that in basic medium BM)” value in experiment [1] is on record as “certain promoting effects on cell proliferation in specific concentration ranges”. Also, in experiment [2], the “amount in the culture medium, most preferably” value (“amount in the culture medium” for short) was 10 ng/mL.
`CN1C(=O)C(c2c(F)cccc2F)N(C)c2nc(Nc3ccc(S(N)(=O)=O)cc3)ncc21` (stereo not shown) [Compound 1, 4-((7-(2,6-Difluorophenyl)-5,8-dimethyl-6-oxo-5,6,7,8-tetrahydropteridin-2-yl)amino)benzsulfamide]: the “effect on cell proliferation (ratio of number of cells to that in basic medium BM)” value in experiment [1] was “certain promoting effects on cell proliferation in specific concentration ranges”. In experiment [2], the “amount in the culture medium” value was determined as 5 µM. Moreover, in experiment [3], the “expression of YAP and TAZ proteins in the nucleus” value is “significant increase”.
On to `Cc1cccc(-c2nn(C(=S)Nc3ccccc3)cc2-c2ccnc3ccccc23)n1` [Compound A83-01, reference compound], for which the “effect on cell proliferation (ratio of number of cells to that in basic medium BM)” value in experiment [1] is given as “certain promoting effects on cell proliferation in specific concentration ranges”. Further, in experiment [2], the “amount in the culture medium” value was 0.5 µM.
Taken in the same sequence, the figures for “gastrin: additive factor from Sino Biological Inc. (QGPWLEEEEEAYGWMDF; ends and bridges not checked; UniProt P01350 76-92, looked up)” were “certain promoting effects on cell proliferation in specific concentration ranges” and 10 ng/mL.
For “transferrin: additive factor from Sino Biological Inc.” the same measures were “certain promoting effects on cell proliferation in specific concentration ranges” and 20 ng/mL.
In the case of `C[C@@H](N)[C@H]1CC[C@H](C(=O)Nc2ccncc2)CC1` [Compound Y27632, reference compound], in experiment [1], the “effect on cell proliferation (ratio of number of cells to that in basic medium BM)” value is on record as “certain promoting effects on cell proliferation in specific concentration ranges”. The “amount in the culture medium” value in experiment [2] is 10 µM.
